Some test systems named below: A549 NSCLC; CCRF-CEM leukemia; SK-MEL-5 melanoma; LOX IMVI melanoma; NCI/ADR-RES ovarian; SF-295 CNS; NCI-H226 lung; UACC-62 melanoma; MDA-MB-231 breast; HS 578T breast.
Assay in all cases: DTP human tumour cell line panel, 48 h

Values joined by “and” are separate entries in the source; they are usually repeats but may differ in a detail not shown here. Equal values may be shown once.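 Following 48 hours of exposure in 96-well plates, responses at five concentrations were used to interpolate endpoints linearly. GI50: concentration for 50% inhibition of growth. At the TGI there is no net growth.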 Bounds are passed on as bounds.

As to `C=C1C(=O)O[C@H]2[C@H]1CC/C(CNC(=O)c1cc3cc(OC)ccc3[nH]1)=C\CC[C@@]1(C)O[C@@H]21`, the GI50 (commonly the concentration that inhibits growth by half) was 3.69 µM in the assay on A549 NSCLC; 1.97 µM with CCRF-CEM leukemia; 2.01 µM with SK-MEL-5 melanoma; 1.36 µM with LOX IMVI melanoma; 6.07 µM in the assay on NCI/ADR-RES ovarian; 4.89 µM in the assay on SF-295 CNS. The GI50 in the assay on NCI-H226 lung was 1.71 µM; with UACC-62 melanoma, 1.52 µM; in the assay with MDA-MB-231 breast, 1.71 µM; with HS 578T breast, 2.88 µM. Besides, the TGI (commonly the concentration at which net growth stops) was 14.4 µM with A549 NSCLC; 5.93 µM with CCRF-CEM leukemia; 4.85 µM in the assay on SK-MEL-5 melanoma; 2.67 µM with LOX IMVI melanoma; 23.7 µM with NCI/ADR-RES ovarian; 18.7 µM in the assay with SF-295 CNS. Further, the TGI came out at 4.6 µM with NCI-H226 lung, 3.61 µM in the assay on UACC-62 melanoma, 4.49 µM with MDA-MB-231 breast and 11.8 µM with HS 578T breast.
On to `O=S(=O)(NC1=NCCN1C(=S)SN1CCn2c1nsc2=S)c1ccc(Br)cc1`, for which the GI50 is over 100 µM in the assay on A549 NSCLC; 20.9 µM in the assay with CCRF-CEM leukemia; 19.5 µM in the assay with SK-MEL-5 melanoma; 19.4 µM in the assay with LOX IMVI melanoma; over 100 µM with NCI/ADR-RES ovarian; 46.2 µM in the assay on SF-295 CNS. For the same molecule, the GI50 in the assay on NCI-H226 lung was 40.2 µM; with UACC-62 melanoma it was 25.2 µM; with MDA-MB-231 breast, 28.8 µM; with HS 578T breast it was 21.4 µM. Further, the TGI with A549 NSCLC was over 100 µM; in the assay on CCRF-CEM leukemia it was 71.8 µM; in the assay with SK-MEL-5 melanoma, 47.9 µM; with LOX IMVI melanoma, 39.6 µM; in the assay with NCI/ADR-RES ovarian, over 100 µM; in the assay with SF-295 CNS, over 100 µM. Moreover, the TGI in the assay on NCI-H226 lung is over 100 µM; with UACC-62 melanoma it was 94.3 µM; in the assay with MDA-MB-231 breast, over 100 µM; in the assay on HS 578T breast, 67.2 µM.
As for `COc1cc(OC)cc(C2CC(=O)Nc3c2c(C)nn3-c2nc3ccccc3[nH]2)c1` (stereo not drawn), the GI50 in the assay on A549 NSCLC is 3.18 µM; in the assay on CCRF-CEM leukemia, 0.792 µM; in the assay with SK-MEL-5 melanoma it was 1.97 µM; with LOX IMVI melanoma, 2.09 µM; in the assay on NCI/ADR-RES ovarian, 4.47 µM; in the assay with SF-295 CNS it was 1.58 µM. The GI50 is 2.52 µM with NCI-H226 lung, 1.94 µM in the assay with UACC-62 melanoma, 3.66 µM in the assay with MDA-MB-231 breast and 3.06 µM in the assay on HS 578T breast. Further, the TGI with A549 NSCLC was 15.5 µM; with CCRF-CEM leukemia it was over 100 µM; in the assay with SK-MEL-5 melanoma it was 4.27 µM; with LOX IMVI melanoma it was 4.44 µM; in the assay on NCI/ADR-RES ovarian, over 100 µM; with SF-295 CNS, 3.85 µM. Moreover, the TGI with NCI-H226 lung was 6.38 µM; in the assay with UACC-62 melanoma, 4.01 µM; in the assay with MDA-MB-231 breast, over 100 µM; in the assay on HS 578T breast it was 39.9 µM.
Take `Cc1ccccc1NC(=O)N/C(N)=N/c1nc(-c2cccc([N+](=O)[O-])c2)cs1`: the GI50 is 2.39 µM in the assay with A549 NSCLC; 3 µM in the assay on CCRF-CEM leukemia; 1.88 µM in the assay with SK-MEL-5 melanoma; 1.79 µM with LOX IMVI melanoma; 1.82 µM in the assay with NCI/ADR-RES ovarian; 1.53 µM with SF-295 CNS. In addition, the GI50 is 2.17 µM in the assay with NCI-H226 lung, 2.14 µM with UACC-62 melanoma, 1.6 µM in the assay on MDA-MB-231 breast and 2.17 µM in the assay on HS 578T breast. The TGI with A549 NSCLC was 6.98 µM; in the assay with CCRF-CEM leukemia, over 100 µM; with SK-MEL-5 melanoma, 5.15 µM; in the assay with LOX IMVI melanoma, 5.17 µM; with NCI/ADR-RES ovarian, 7.22 µM; in the assay on SF-295 CNS it was 3.62 µM. In addition, the TGI in the assay with NCI-H226 lung came to 7.02 µM; in the assay with UACC-62 melanoma it was 12.8 µM; with MDA-MB-231 breast, 4.03 µM; with HS 578T breast, 7.31 µM.
Take `O=c1c2c(nc3n1CCS3)[nH]c1ccccc12`: the GI50 with A549 NSCLC is 90.1 µM; in the assay with CCRF-CEM leukemia, over 100 µM; in the assay on SK-MEL-5 melanoma it was 2.75 µM; in the assay with LOX IMVI melanoma, 59.5 µM; in the assay on NCI/ADR-RES ovarian it was over 100 µM; in the assay with SF-295 CNS, over 100 µM. In addition, the GI50 was 70.3 µM in the assay on NCI-H226 lung, 62.4 µM in the assay on UACC-62 melanoma, 33.4 µM with MDA-MB-231 breast and 73.6 µM in the assay on HS 578T breast. The TGI with A549 NSCLC, with CCRF-CEM leukemia, in the assay with SK-MEL-5 melanoma, in the assay with LOX IMVI melanoma, in the assay on NCI/ADR-RES ovarian and with SF-295 CNS was over 100 µM throughout. The total growth inhibition concentration (TGI) with NCI-H226 lung, in the assay with UACC-62 melanoma, in the assay with MDA-MB-231 breast and in the assay with HS 578T breast was over 100 µM in each case.
As to `Nc1c(C(=O)c2ccc(Cl)cc2)sc(Nc2ccccc2)c1-c1nc2ccccc2s1`, the GI50 in the assay with A549 NSCLC was over 100 µM; in the assay on CCRF-CEM leukemia, 13.9 µM; in the assay on SK-MEL-5 melanoma, 16.6 µM; in the assay with LOX IMVI melanoma, 3.25 µM; in the assay on NCI/ADR-RES ovarian, 3.34 µM; in the assay with SF-295 CNS, 2.18 µM. The GI50 with NCI-H226 lung is 1.58 µM; with UACC-62 melanoma it was 2.27 µM; in the assay on MDA-MB-231 breast, 2.35 µM; in the assay on HS 578T breast, 2.56 µM. The TGI with A549 NSCLC was over 100 µM; in the assay with CCRF-CEM leukemia it was over 100 µM; in the assay with SK-MEL-5 melanoma, over 100 µM; with LOX IMVI melanoma, over 100 µM; with NCI/ADR-RES ovarian, over 100 µM; in the assay on SF-295 CNS it was 10.8 µM. Moreover, the TGI in the assay with NCI-H226 lung was over 100 µM; with UACC-62 melanoma it was over 100 µM; with MDA-MB-231 breast it was over 100 µM; in the assay with HS 578T breast, 26.9 µM.
For the molecule `CC(=O)N[C@H]1C=C[C@@H]2/C=C(C)/C=C/[C@@H](C)[C@H]([C@H](C)[C@H](O)[C@@H](C)NC(C)=O)OC(=O)/C=C/C=C(C)\C=C\[C@]2(C)C1`, the TGI in the assay on A549 NSCLC is 4.65 µM and > 45 µM; in the assay on CCRF-CEM leukemia, over 45 µM; in the assay with SK-MEL-5 melanoma, 0.0458 µM and 0.00824 µM; in the assay with LOX IMVI melanoma it was 0.016 µM and < 0.0045 µM; with NCI/ADR-RES ovarian, 4.65 µM and > 45 µM; in the assay on NCI-H226 lung, 4.65 µM and 7.18 µM. Besides, the TGI in the assay with UACC-62 melanoma was 4.65 µM and 13.3 µM; in the assay with MDA-MB-231 breast, 0.0235 µM and < 0.0045 µM; in the assay with HS 578T breast it was 4.65 µM and 3.28 µM. Also, the GI50 is 6.32 µM in the assay with CCRF-CEM leukemia; 0.00896 µM and 0.0045 µM in the assay on SK-MEL-5 melanoma; 0.00734 µM and < 0.0045 µM in the assay on LOX IMVI melanoma; 0.213 µM and 0.0397 µM in the assay with NCI/ADR-RES ovarian; 0.00449 µM and 0.0045 µM in the assay with SF-295 CNS; 0.0157 µM and 0.0045 µM in the assay on NCI-H226 lung. Further, the 50% growth inhibitory concentration (GI50) is 0.0228 µM and 0.0315 µM in the assay on UACC-62 melanoma; 0.00333 µM and < 0.0045 µM in the assay with MDA-MB-231 breast; 0.0161 µM and 0.0045 µM in the assay with HS 578T breast.

These data come from PubChem BioAssay (NCI).
